Results on 25 compounds are retold here after patent publication US12410160B2 (Gilead Sciences, Inc., priority 2021, dated 2025).

Like-named read-outs stand apart in the source and are kept apart here. Some results are limits rather than exact numbers.

Experiment [1] deals with KHK-C expressed in NRK-52E cells (Homo sapiens (Human), UniProt P50053). The experiment in a line: KHK-C Cell-based Assay (EC50), NRK CTG, fructose-mediated ATP-depletion.
A further experiment concerns the target human KHK-C (Homo sapiens (Human), UniProt P50053). The experiment in a line: KHK Biochemical Assay (IC50), ADP-Glo, KHK-C. Particulars: average of at least two separate assays. The essentials:
(§1)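 Luminescent ADP-Glo read-out of ADP made by His-tagged KHK (BL21 (DE3) expression, Ni-NTA). Enzyme and compound sat together 30 min before ATP/fructose addition, then reacted 4 h at RT in Hepes pH 7.4 buffer with KCl, MgCl2, Triton-X. Quench 1 h, detection 1 h.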
In general terms: ADP-Glo turns the ADP formed in a reaction into a luminescent signal.

The next experiment concerns the target human KHK-A (Homo sapiens (Human), UniProt P50053). The experiment can be described thus: KHK Biochemical Assay (IC50), ADP-Glo, KHK-A. Particulars: average of at least two separate assays. The gist of the method: as §1
Another experiment relates to HepG2 cells. The experiment in a line: F1P Cell-Based Assay (EC50), 13C6-fructose-1-phosphate in HepG2 cells (cell culture medium or 50% human plasma).
[2] abbreviates: HepG2 cells, 50% human plasma, read-out: F1P 50% HP EC50.
[3] abbreviates: read-out: F1P 10% FBS EC50, HepG2 cells, cell culture medium (10% FBS).
Where [4] appears, read: Homo sapiens, HepG2, HepG2 cells, 50% human plasma, read-out: F1P 50% HP EC50.
Where [5] appears, read: Homo sapiens, HepG2, read-out: F1P 10% FBS EC50, HepG2 cells, cell culture medium (10% FBS).

Chain of human KHK-C (P50053 whole entry): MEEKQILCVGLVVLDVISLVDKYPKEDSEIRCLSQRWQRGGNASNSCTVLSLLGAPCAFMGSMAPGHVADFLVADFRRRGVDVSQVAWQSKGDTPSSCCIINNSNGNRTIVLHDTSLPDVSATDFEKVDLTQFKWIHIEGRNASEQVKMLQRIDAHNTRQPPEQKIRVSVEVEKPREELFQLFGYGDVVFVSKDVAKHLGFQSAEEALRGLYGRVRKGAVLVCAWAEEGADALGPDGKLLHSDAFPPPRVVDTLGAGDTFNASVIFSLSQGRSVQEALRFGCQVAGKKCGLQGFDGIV
Chain of KHK-C expressed in NRK-52E cells (P50053 whole entry): as above
Chain of human KHK-A (P50053 other isoform, or with tags, fused parts or gaps): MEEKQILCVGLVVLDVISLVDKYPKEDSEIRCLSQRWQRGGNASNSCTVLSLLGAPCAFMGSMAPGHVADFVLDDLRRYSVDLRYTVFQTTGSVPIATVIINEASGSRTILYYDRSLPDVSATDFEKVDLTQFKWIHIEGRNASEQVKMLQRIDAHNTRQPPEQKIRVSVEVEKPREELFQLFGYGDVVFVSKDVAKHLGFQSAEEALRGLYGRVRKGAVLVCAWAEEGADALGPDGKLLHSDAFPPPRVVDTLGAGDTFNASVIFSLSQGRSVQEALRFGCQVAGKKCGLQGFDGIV

As a reminder, the EC50 is the concentration at which the effect is half-maximal. Take `C[C@H]1[C@H](CO)CN1c1nc2c(c(-c3ccc(C(N)=O)cc3)n1)CCC2` (racemic) [Example 267, (rac)-4-(2-((2S*,3R*)-3-(hydroxymethyl)-2-methylazetidin-1-yl)-6,7-dihydro-5H-cyclopenta[d]pyrimidin-4-yl)benzamide]: in experiment [1], the EC50 was more than 5 µM.

For orientation: IC50 means the point on the concentration scale where inhibition reaches its midpoint. As for `COc1ccc(-c2nc(N3C[C@@H](O)[C@@H]3C)nc3c2CCC3(F)F)cc1[S@@](=N)(=O)C1CC1` (single isomer, unassigned) [Example 539], the figures for the IC50 at human KHK-C and against human KHK-A were 0.001 µM and 0.0004 µM, respectively. Also, the EC50 with HepG2 cells (setting [2]) was 0.0089 µM; in the experiment on HepG2 cells (setting [3]) it was 0.002 µM.

Consider `C[C@H]1[C@H](O)CN1c1nc(-c2ccc3c(c2)OCC[C@@H]3NS(C)(=O)=O)c2c(n1)C(F)(F)CC2` (single isomer, unassigned) [Example 787], for which the figures for the 50% inhibitory concentration (IC50) at human KHK-C and at human KHK-A were 0.0011 µM and 0.007 µM, respectively. In addition, the results for the EC50 in the experiment with HepG2 cells (setting [4]) and in the experiment with HepG2 cells (setting [5]) were 0.0275 µM and 0.0149 µM, respectively.

Take `C[C@H]1[C@H](F)CN1c1nc(-c2ccc([C@H](N)CS(C)(=O)=O)cc2)c2c(n1)C(F)(F)CC2` (single isomer, unassigned) [Example 788]: the IC50 against human KHK-C is 0.0025 µM; on human KHK-A, 0.006 µM. In addition, the figures for the EC50 in the experiment with HepG2 cells (setting [2]) and in the experiment on HepG2 cells (setting [3]) were 0.0765 µM and 0.0186 µM, respectively.

As to `C[C@H]1[C@H](O)CN1c1nc(-c2cc(F)c3c(c2)OC[C@@H]3NS(C)(=O)=O)c2c(n1)C(F)(F)CC2` (single isomer, unassigned) [Example 813], the concentration for half-maximal inhibition (IC50) against human KHK-C (ADP-Glo) was found to be 0.0025 µM; against human KHK-A (ADP-Glo) it was 0.0347 µM. In addition, the EC50 in the experiment with HepG2 cells (setting [4]) came to 0.0784 µM; in the experiment on HepG2 cells (setting [5]), 0.0252 µM.

For the compound `C[C@H]1[C@@H](F)CN1c1nc(-c2ccc(C3(N)COC3)cc2)c2c(n1)C(F)(F)CC2` (stereo in doubt) [Example 469, 3-(4-(7,7-difluoro-2-((28,38)-3-fluoro-2-methylazetidin-1-yl)-6,7-dihydro-5H-cyclopenta[d]pyrimidin-4-yl)phenyl)oxetan-3-amine], the half-inhibitory concentration (IC50) was found to be 0.0025 µM against human KHK-C and 0.0067 µM on human KHK-A. For the same compound, the EC50 turned out to be 0.0225 µM in the experiment on HepG2 cells (setting [4]) and 0.0107 µM in the experiment on HepG2 cells (setting [5]).

Take `C[C@H]1[C@H](F)CN1c1nc2c(c(-c3ccc4c(c3)C(=O)N(C)C4)n1)CCC2` [Example 203, 6-[2-[(2S,3R)-3-fluoro-2-methyl-azetidin-1-yl]-6,7-dihydro-5H-cyclopenta[d]pyrimidin-4-yl]-2-methyl-isoindolin-1-one]: a half-maximal response in experiment [1] (EC50) required 0.0595 µM.

In the case of `C[C@H]1CCN1c1nc2c(c(-c3ccc4c(c3)C(=O)N(C)C4)n1)CCC2` [Example 206, 2-methyl-6-[2-[(2S)-2-methylazetidin-1-yl]-6,7-dihydro-5H-cyclopenta[d]pyrimidin-4-yl]isoindolin-1-one], the response in experiment [1] was half-maximal at 0.0266 µM (EC50).

In turn, `C[C@H]1CCN1c1nc(-c2cccc(C(N)=O)c2)c2c(n1)C1CC1C2` (stereo partly drawn) [Example 272, 3-(2-((S)-2-methylazetidin-1-yl)-5,5a,6,6a-tetrahydrocyclopropa[4,5]cyclopenta[1,2-d]pyrimidin-4-yl)benzamide] gave an EC50 in experiment [1] of 0.635 µM.

The compound `C[C@H]1CCN1c1nc2c(c(-c3ccc(C4(NS(C)(=O)=O)CC4)cc3)n1)CCC2` [Example 306, (S)—N-(1-(4-(2-(2-methylazetidin-1-yl)-6,7-dihydro-5H-cyclopenta[d]pyrimidin-4-yl)phenyl)cyclopropyl)methanesulfonamide] yielded a 50% effective concentration (EC50) in experiment [1] of 0.45 µM.

For the compound `C[C@H]1[C@H](F)CN1c1nc2c(c(-c3cccc(CN)c3)n1)CCC2` [Example 352, [3-[2-[(2S,3R)-3-fluoro-2-methyl-azetidin-1-yl]-6,7-dihydro-5H-cyclopenta[d]pyrimidin-4-yl]phenyl]methanamine], in experiment [1], the response was half-maximal at 0.201 µM (EC50).

The compound `C[C@H]1CCN1c1nc2c(c(-c3ccc(CNS(C)(=O)=O)cc3)n1)CCC2` [Example 361, N-[[4-[2-[(2S)-2-methylazetidin-1-yl]-6,7-dihydro-5H-cyclopenta[d]pyrimidin-4-yl]phenyl]methyl]methanesulfonamide] yielded an EC50 in experiment [1] of 0.0657 µM.

For `C[C@H]1CCN1c1nc2c(c(-c3nc4ccccc4[nH]3)n1)CCC2` [Example 389, 2-[2-[(2S)-2-methylazetidin-1-yl]-6,7-dihydro-5H-cyclopenta[d]pyrimidin-4-yl]-1H-benzimidazole], in experiment [1], the EC50 amounted to 0.217 µM.

`C[C@H]1CCN1c1nc(-c2ccc(C(N)=O)cc2)c2cn[nH]c2n1` [Example 401, (S)-4-(6-(2-methylazetidin-1-yl)-1H-pyrazolo[3,4-d]pyrimidin-4-yl)benzamide] yielded an EC50 in experiment [1] of more than 5 µM.

Take `C[C@H]1[C@H](O)CN1c1nc(-c2ccc3c(c2)CC[C@]32NC(=O)NC2=O)c2c(n1)C(F)(F)CC2` [Example 486, (S)-5′-(7,7-difluoro-2-((2S,3R)-3-hydroxy-2-methylazetidin-1-yl)-6,7-dihydro-5H-cyclopenta[d]pyrimidin-4-yl)-2′,3′-dihydrospiro[imidazolidine-4,1′-indene]-2,5-dione]: the IC50 was 0.0002 µM against human KHK-C and 0.0017 µM against human KHK-A. Besides, the EC50 worked out at 0.0083 µM in the experiment on HepG2 cells (setting [4]) and 0.006 µM with HepG2 cells (setting [5]).

Turning to `C[C@H]1[C@H](O)CN1c1nc(-c2cc(F)c3c(c2)CCC3NS(C)(=O)=O)c2c(n1)C(F)(F)CC2` (stereo partly drawn) [Example 525, N-(5-(7,7-difluoro-2-((2S,3R)-3-hydroxy-2-methylazetidin-1-yl)-6,7-dihydro-5H-cyclopenta[d]pyrimidin-4-yl)-7-fluoro-2,3-dihydro-1H-inden-1-yl)methanesulfonamide], the IC50 came to 0.0018 µM at human KHK-C and 0.0298 µM against human KHK-A. Also, the EC50 in the experiment on HepG2 cells (setting [4]) is 0.0866 µM; in the experiment with HepG2 cells (setting [5]), 0.0325 µM.

For the compound `CS(=O)(=O)N[C@H]1COc2cc(-c3nc(N4CC[C@@H]4C(F)F)nc4c3CCC4(F)F)ccc21` [Example 545, N—((R)-6-(2-((R)-2-(difluoromethyl)azetidin-1-yl)-7,7-difluoro-6,7-dihydro-5H-cyclopenta[d]pyrimidin-4-yl)-2,3-dihydrobenzofuran-3-yl)methanesulfonamide], the half-inhibitory concentration (IC50) on human KHK-C is 0.001 µM; against human KHK-A it was 0.004 µM. The EC50 with HepG2 cells (setting [4]) stood at 0.0247 µM; with HepG2 cells (setting [5]), 0.0024 µM.

Consider `C[C@H]1CCN1c1nc2c(c(-c3ccc4c(c3)CN(S(=O)(=O)CC#N)CC4)n1)CCC2` [Example 604, (S)-2-((7-(2-(2-methylazetidin-1-yl)-6,7-dihydro-5H-cyclopenta[d]pyrimidin-4-yl)-3,4-dihydroisoquinolin-2(1H)-yl)sulfonyl)acetonitrile], for which, in experiment [1], a half-maximal effect (EC50) was put at 0.164 µM.

`C[C@H]1CCN1c1nc2c(c(-c3cccc(C4CCS(=O)(=O)N4)c3)n1)CCC2` (stereo partly drawn) [Example 606, 3-(3-(2-((S)-2-methylazetidin-1-yl)-6,7-dihydro-5H-cyclopenta[d]pyrimidin-4-yl)phenyl)isothiazolidine 1,1-dioxide] registered an EC50 in experiment [1] of 0.0375 µM.

In turn, `C[C@H]1[C@H](O)CN1c1nc(-c2ccc3c(c2)CNCC3)c2c(n1)C(F)(F)CC2` [Example 612, (2S,3R)-1-(7,7-difluoro-4-(1,2,3,4-tetrahydroisoquinolin-7-yl)-6,7-dihydro-5H-cyclopenta[d]pyrimidin-2-yl)-2-methylazetidin-3-ol] returned an EC50 in experiment [1] of 0.0325 µM.

`CC(=O)NC1COc2cc(-c3nc(N4C[C@@H](O)[C@@H]4C)nc4c3CCC4(F)F)cc(F)c21` (some centres unmarked) [Example 809] displayed an IC50 on human KHK-C (ADP-Glo) of 0.0248 µM. The values for the EC50 with HepG2 cells (setting [4]) and with HepG2 cells (setting [5]) were 0.179 µM and 0.11 µM, respectively.

Compound `C[C@H]1[C@H](O)CN1c1nc(-c2ccc3c(c2)CCC3(C)NS(C)(=O)=O)c2c(n1)C(F)(F)CC2` (stereo partly drawn) [Example 810, N-[5-[7,7-difluoro-2-[(2S,3R)-3-hydroxy-2-methyl-azetidin-1-yl]-5,6-dihydrocyclopenta[d]pyrimidin-4-yl]-1-methyl-indan-1-yl]methanesulfonamide] yielded an IC50 on human KHK-C (ADP-Glo) of 0.0349 µM. Besides, the values for the EC50 with HepG2 cells (setting [4]) and with HepG2 cells (setting [5]) were more than 0.5 µM and 0.206 µM, respectively.

For the compound `COC(=O)NC1COc2cc(-c3nc(N4C[C@@H](O)[C@@H]4C)nc4c3CCC4(F)F)cc(F)c21` (stereo partly drawn) [Example 811, methyl (6-(7,7-difluoro-2-((2S,3R)-3-hydroxy-2-methylazetidin-1-yl)-6,7-dihydro-5H-cyclopenta[d]pyrimidin-4-yl)-4-fluoro-2,3-dihydrobenzofuran-3-yl)carbamate], the IC50 on human KHK-C (ADP-Glo) amounted to 0.0052 µM. Further, the EC50 in the experiment with HepG2 cells (setting [4]) was found to be 0.343 µM; with HepG2 cells (setting [5]), 0.127 µM.

On human KHK-C (ADP-Glo), `C[C@H]1[C@H](O)CN1c1nc(-c2cc(F)c3c(c2)OCC3NS(C)(=O)=O)c2c(n1)C(F)(F)CC2` (stereo partly drawn) [Example 817, N-(6-(7,7-difluoro-2-((2S,3R)-3-hydroxy-2-methylazetidin-1-yl)-6,7-dihydro-5H-cyclopenta[d]pyrimidin-4-yl)-4-fluoro-2,3-dihydrobenzofuran-3-yl)methanesulfonamide] came in with an IC50 of 0.0059 µM. In addition, the figures for the EC50 in the experiment on HepG2 cells (setting [4]) and in the experiment with HepG2 cells (setting [5]) were 0.0671 µM and 0.0397 µM, respectively.

`C[C@H]1CCN1c1nc(-c2ccc3c(c2)CCNC3C(F)F)c2c(n1)C(F)(F)CC2` (stereo partly drawn) [Example 836, 6-(7,7-difluoro-2-((S)-2-methylazetidin-1-yl)-6,7-dihydro-5H-cyclopenta[d]pyrimidin-4-yl)-1-(difluoromethyl)-1,2,3,4-tetrahydroisoquinoline] returned an IC50 against human KHK-C (ADP-Glo) of 0.0058 µM. The EC50 in the experiment with HepG2 cells (setting [4]) turned out to be 0.159 µM; in the experiment on HepG2 cells (setting [5]), 0.0169 µM.
